US7977120B2, “Fluorescent sensors for cellular amines” (The Curators of the University of Missouri, priority 2005, dated 2011)

Columns and labels:
[1] = test system: norepinephrine-enriched chromaffin cells; experiment: Staining norepinephrine-enriched chromaffin cells with Sensor IIb; format: cell-based; details: 0.25 μM, 15 minutes, 37 C, confocal microscopy; compared with epinephrine-enriched cells
Description: (§1) The adrenal medulla contains two types of chromaffin cells; those that primarily contain norepinephrine within vesicles and those that primarily contain epinephrine. The two types of cells can be separated upon high-speed centrifugation in a Percoll density gradient. Following centrifugation, the less-dense norepinephrine enriched cells can be collected from the top of the gradient, whereas the denser epinephrine-enriched cells settle to the bottom.
(§2) Following centrifugation of adrenal medullary cells in a Percoll density gradient, the less-dense norepinephrine enriched cells were collected from the top of the gradient, whereas the denser epinephrine-enriched cells were collected from the bottom of the gradient. Both collections of cells were incubated for 15 minutes at 37 C in 0.25 μM IIb dissolved in cell culture media. The cells were then washed in dye-free media and observed using a confocal microscope at room temperature.
(§3) Because it is possible to separate chromaffin cells into populations which contain epinephrine and norepinephrine, these cells were used to test sensor 76.

[2] = test system: epinephrine-enriched chromaffin cells; experiment: Staining epinephrine-enriched chromaffin cells with Sensor IIb; format: cell-based; details: identical conditions as norepinephrine cells
Description: as §1, §2, §3

CN(CCCSc1c(C=O)c(=O)n(Cc2ccccc2)c2cc(N(C)C)ccc12)Cc1ccccc1B(O)O [Sensor IIb]
staining of norepinephrine-enriched cells [1]: stained brightly
staining of epinephrine-containing cells [2]: did not stain well
